Consider one sequence from publication PMC10053369, “Recombinant Analogs of Sea Anemone Kunitz-Type Peptides Influence P2X7 Receptor Activity in Neuro-2a Cells” (Marine Drugs, 2023).

Positions of bridges follow the written chain, without caps; N, C: chain ends. No end group written: not given here.

As usually defined, the Kd is the free concentration of one partner at which half of the binding sites on the other are occupied at equilibrium, for simple one-to-one binding. The low end stands for a tighter complex, the high end for a looser complex.

Test [1] has as its target T1, hP2X7 (47–334 a.a., extracellular domain, 36.8 kDa) (Homo sapiens, UniProt Q99572).
T1 construct: hP2X7 (47–334 a.a., extracellular domain, 36.8 kDa); purchased Abbexa LTD, Cambridge, UK abx167020
T1 sequence (Q99572 47-334): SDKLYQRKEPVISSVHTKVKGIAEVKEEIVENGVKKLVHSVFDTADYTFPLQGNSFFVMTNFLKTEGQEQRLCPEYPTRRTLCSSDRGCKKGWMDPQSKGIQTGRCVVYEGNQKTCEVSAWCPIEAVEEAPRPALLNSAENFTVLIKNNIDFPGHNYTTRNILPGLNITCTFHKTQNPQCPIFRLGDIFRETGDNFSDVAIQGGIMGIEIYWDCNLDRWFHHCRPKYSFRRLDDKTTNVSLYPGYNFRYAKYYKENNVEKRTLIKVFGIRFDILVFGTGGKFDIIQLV
Nature of the test: Surface plasmon resonance (Biacore 3000). In kind it is binding. The protocol: SPR analysis was performed at 25 °C using a Biacore® 3000 optical biosensor (GE Healthcare, Chicago, IL, USA) and CM5 sensor chips. HBS-N (10 mM HEPES, 150 mM NaCl, pH 7.4) (Cytiva, Chicago, IL, USA) was used as a working buffer for the immobilization of hP2X7 (47–334 a.a., extracellular domain, 36.8 kDa) (abx167020 Abbexa LTD, Cambridge, UK). The carboxyl groups of the dextran biosensor chip were activated for 5 min by introducing a 1:1 mixture of 0.2 M 1-ethyl-3-(3-dimethylaminopropyl)carbodiimide hydrochloride (EDC) and 0.05 M N-hydroxysuccinimide (NHS) at a rate of 5 µL/min followed by a 1 min wash with HBS-N buffer at the same flow rate. Next, hP2X7 (15 μg/mL) in 10 mM sodium acetate (pH 5.0) was injected into the working channel of the biosensor for 10 min at a flow rate of 5 μL/min. The final level of immobilization was 12300 RU (12.3 ng of protein). The control channel without immobilized P2X7R was used to correct the effects of the nonspecific binding of analytes to the chip surface.
Lyophilized peptides were prepared as 100 μM stock solutions in HBS-N buffer. Experimental peptide samples were prepared in the range of 5–100 μM. The samples were injected through the channels of the biosensor (working and reference) at a flow rate of 10 μL/min for 6 min. The dissociation of the formed peptide/P2X7 complexes was recorded for at least 6 min from the moment of injection at the same flow rate after the injection of the sample. After each cycle of the biosensor, the bound analyte was removed by double injection of the regenerating solution (2 M NaCl, 1% CHAPS) at a flow rate of 30 μL/min for 30 s.
SPR sensorgrams were processed in Biacore 3000 Evaluation Software v.1.0 (GE Healthcare, Chicago, IL, USA) and BIAevaluation Software v. 4.1.1 (GE Healthcare, Chicago, IL, USA) using “1:1 binding (Langmuir)” and “two-state binding (conformational change)” data processing models.
The 1:1 (Langmuir) binding model is a 1:1 interaction model between a compound (C) and an immobilized protein (P) and is equivalent to the Langmuir isotherm for surface adsorption: C + P ↔ CP.
The two-state binding (conformational change) model describes the 1:1 binding of a compound (C) to an immobilized protein (P) followed by a conformational change in the complex (CP ↔ CP*). It is assumed that the conformationally changed complex can dissociate only by the reverse conformational change: C + P ↔ CP ↔ CP*. The final kinetic parameters were obtained from the models that best agree with the experimental curves for the minimum of the obtained value of chi2. The equations describing the models used are as follows: • (1) 1:1 (Langmuir) binding: Kd = koff/kon, where Kd is the equilibrium dissociation constant, koff is the dissociation rate constant, kon is the association rate constant. • (2) Reaction of two states (with conformational change): Kd = koff1/kon1 × (1 + kon2/koff2) − 1, where Kd is the equilibrium dissociation constant, koff1 is the dissociation rate constant, kon1 is the association rate constant, kon2 is the direct association rate constant for the CP ↔ transition CP*, koff2 is the inverse dissociation rate constant for the CP ↔ CP* transition.
The model describing the interaction was chosen according to the lowest chi2 parameter’s value. Chi2 is a measure of the average squared residual between the experimental data and the fitted curve.
On the technique in general: Surface plasmon resonance follows binding to a sensor surface in real time, without labels.

The subject of another test is P2X7 in Neuro-2a cells. The test can be described thus: ATP-induced YO-PRO-1 uptake (P2X7 pore formation). In kind it is cell-based, mouse. The settings on record: short-term effect. The protocol: Neuro-2a neuroblastoma cells (ATCC® CCL-131™) were obtained from American Type Culture Collection (Manassas, VA, USA). The cells were cultivated in DMEM medium (BioloT, St. Petersburg, Russia) supplemented with 10% of fetal bovine serum (BioloT, St. Petersburg, Russia) and 1% penicillin/streptomycin (BioloT, St. Petersburg, Russia) at 37 °C and 5% CO2. Initially, cells were incubated in cultural flasks until sub-confluent (~80%). For testing, Neuro-2a cells were seeded in 96-well plates and experiments were started after 24 h.
Neuro-2a cells were seeded in 96 well plates at a density of 4 × 10^4 cells/well and incubated in DMEM for 24 h, 37 °C, 5% CO2. Then the cells were washed once with HBSS and filled with 180 μL of the same buffer. YO-PRO-1 (Sigma-Aldrich, St. Louis, MO, USA, 5 μM final concentration) was loaded into the wells, the cells were incubated for 15 min at 37 °C. Further, the studied peptides were added to the cells at concentrations of 10, 1, 0.1 and 0.01 μM and incubated for 10 min at 37 °C. After that ATP (4 mM final concentration) was added and the plates were incubated for an additional 10 min. The standard P2X7R inhibitor, A438079 (Sigma-Aldrich, St. Louis, MO, USA), was used as inhibitory control. Then the cells were washed three times with the buffer solution and fluorescence intensity was measured with PHERAstar FS plate reader (BMG, LABTECH, Ortenberg, Germany) at λex = 485 nm and λem= 520 nm in the “End Point” mode. The effectiveness of compounds was evaluated relative to control without ATP.
All data were obtained in three independent replicates and calculated values were expressed as mean ± standard error of the mean (SEM). The Student’s t-test was performed using SigmaPlot 14.0 (Systat Software Inc., San Jose, CA, USA) to determine statistical significance.

[2] abbreviates: model: binding with two states (CP ↔ CP* transition), 25 °C, HBS-N pH 7.4, average ± SD, n = 3.
The mark [3] stands for this setting: model: binding with two states, 25 °C, HBS-N pH 7.4, average ± SD, n = 3.

Regarding “RGICSEPKVVGPCKAGLRRFYYDSETGECKPFIYGGCKGNKNNFETLHACRGICRA (disulfide 4-54, 13-37, 29-50 (inferred)) [HCRG1]”, the “affinity to P2X7” value in test [1] (SPR, peptides 5–100 μM) is given as “highest affinity”. In addition, in test [1] (setting [2]), the koff2 entry is reported as “(1.5 ± 0.20) × 10^−3 c^−1” and the kon2 entry is on record as “(8.5 ± 1.0) × 10^−3 mole^−1c^−1”. In test [1] (setting [3]), the koff1 entry is “(4.37 ± 0.57) × 10^−2 c^−1” and the kon1 result is “(9.20 ± 1.10) × 10^2 mole^−1c^−1”. The sequence further displayed a Kd in test [1] (model: binding with two states, 25 °C, HBS-N pH 7.4, n = 3) of 7.13 µM. Moreover, the “entry of YO-PRO-1 into cells (summary in discussion)” value in the test with P2X7 in Neuro-2a cells is “regulating the entry of low molecular weight fluorescent dye YO-PRO-1 into cells”.
